Data taken from article PMC6364417, “Kinase inhibitor library screening identifies synergistic drug combinations effective in sensitive and resistant melanoma cells” (Journal of Experimental & Clinical Cancer Research : CR, 2019).
Where two headings read alike, the source gives them in different places.

Columns and labels:
501Mel cells (parental) [1] = assay: Dose-response curves and IC50, PrestoBlue cell viability, 72 h; details: read-out: Half-maximal inhibitory concentration (IC50)
Experimental: (§2) All inhibitors used in this study were purchased from Selleck Chemicals (Houston, USA). They were dissolved in DMSO to a stock concentration of 10 mM according to the manufacturer’s instructions and stored at − 80 °C. […] Cell viability was measured with the PrestoBlue Cell Viability Reagent (ThermoFisher Scientific) on a CLARIOstar Monochromator microplate reader (BMG Labtech). Using the GraphPad Prism v5.04 software, the half-maximal inhibitor concentration values (IC50) were determined from the curve using the nonlinear log (inhibitor) vs response-variable slope (four parameters) equation. […] The IC50’s were determined for 3 biological replicates and are listed with their standard deviations.
(§3) Values represent the mean of at least three biological replicates; one representative curve of at least 3 biological replicates is depicted. _XP: cells resistant to Vemurafenib (red), _GP: cells resistant to Dabrafenib (green).

[2] = system: 501Mel-GP cells (Dabrafenib-resistant); assay: as above; details: read-out: Half-maximal inhibitory concentration (IC50)
Experimental: as §2

[3] = system: IGR37-GP cells (Dabrafenib-resistant); assay: as above; details: read-out: Half-maximal inhibitory concentration (IC50)
Experimental: as §2, §3

IGR37 cells (parental) [4] = assay: as above; details: read-out: Half-maximal inhibitory concentration (IC50)
Experimental: as §2, §3

[5] = system: IGR37-XP cells (Vemurafenib-resistant); assay: as above; details: read-out: Half-maximal inhibitory concentration (IC50)
Experimental: as §2, §3

[6] = system: 501Mel-XP cells (Vemurafenib-resistant); assay: as above; details: read-out: Half-maximal inhibitory concentration (IC50)
[7] = system: A375-GP cells (Dabrafenib-resistant); assay: as above; type: cell-based, human; details: n.e. = did not suppress growth below 50% in the tested concentration range; for IC50: read-out: Half-maximal inhibitory concentration value (IC50), Mean
[8] = system: A375-XP cells (Vemurafenib-resistant); assay: as above; type: cell-based, human; details: n.e. = did not suppress growth below 50% in the tested concentration range; for IC50: read-out: Half-maximal inhibitory concentration value (IC50), Mean
A375 cells (parental) [9] = assay: as above; type: cell-based, human; details: read-out: Half-maximal inhibitory concentration value (IC50), Mean
[10] = system: NHEM (normal human epidermal melanocytes); assay: Dose-response curves and IC50 in non-cancer cells, cell viability, 72 h; details: melanocytes (NHEM)
Experimental: (§1) The IC50 values (nM) were calculated as indicated in Methods.

[11] = system: NHDF (normal human dermal fibroblasts); assay: as above; details: fibroblasts (NHDF)
Experimental: as §1

[12] = system: IGR37-GP cells (Dabrafenib-resistant); assay: Kinase inhibitor library screening, PrestoBlue cell viability, 1 or 10 μM, 72 h; details: IGR37 GP, 72 h
[13] = system: 501Mel-XP cells (Vemurafenib-resistant); assay: as above; details: 501Mel XP, 72 h
IGR37 cells (parental) [14] = assay: as above; details: IGR37 Parental, 72 h
[15] = system: 501Mel-GP cells (Dabrafenib-resistant); assay: as above; details: 501Mel GP, 72 h
[16] = system: IGR37-XP cells (Vemurafenib-resistant); assay: as above; details: IGR37 XP, 72 h
A375 cells (parental) [17] = assay: as above; details: A375 Parental, 72 h
[18] = system: A375-GP cells (Dabrafenib-resistant); assay: as above; details: A375 GP, 72 h
[19] = system: A375-XP cells (Vemurafenib-resistant); assay: as above; details: A375 XP, 72 h
501Mel cells (parental) [20] = assay: as above; details: 501Mel Parental, 72 h
In short: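 Values are % viability versus untreated wells, measured by PrestoBlue after a 72 h drug exposure. Screens covered the parental line plus sublines rendered resistant to Vemurafenib or Dabrafenib, each analysed in at least duplicate.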

[21] = Homo sapiens, A-375, n.e. = did not suppress growth below 50% in the tested concentration range

`Nc1cc(C(F)(F)F)c(-c2cc(N3CCOCC3)nc(N3CCOCC3)n2)cn1` [BKM120] gave an IC50 (501Mel cells (parental) [1]; 501Mel parental, 72 h cell viability) of 1160 nM, an IC50 ([2]; 501Mel-GP (Dabrafenib-resistant), 72 h cell viability) of 919 nM and an IC50 ([3]; IGR37-GP (Dabrafenib-resistant), 72 h cell viability) of 1520 nM. The IC50 (IGR37 cells (parental) [4]; IGR37 parental, 72 h cell viability) was 916 nM, the IC50 ([5]; IGR37-XP (Vemurafenib-resistant), 72 h cell viability) was 1160 nM and the IC50 ([6]; 501Mel-XP (Vemurafenib-resistant), 72 h cell viability) was 818 nM. It also gave an IC50 [7] of 788 nM, an IC50 [8] of 1000 nM and an IC50 (A375 cells (parental) [9]; n.e. = did not suppress growth below 50% in the tested concentration range) of 951 nM.
With `C[C@@H](Oc1cc(-c2cnn(C3CCNCC3)c2)cnc1N)c1c(Cl)ccc(F)c1Cl` [Crizotinib] the IC50 (501Mel cells (parental) [1]; Homo sapiens, 72 h) was 6520 nM, the IC50 ([2]; Homo sapiens, 72 h) was 3280 nM and the IC50 ([3]; Homo sapiens, 72 h) was 6740 nM. For the same compound, the IC50 (IGR37 cells (parental) [4]; Homo sapiens, IGR-37, 72 h) was 6890 nM, the IC50 ([5]; Homo sapiens, 72 h) was 5940 nM and the IC50 ([6]; Homo sapiens, 72 h) was 1350 nM. It also gave an IC50 ([7]; Homo sapiens) of 5100 nM, an IC50 ([8]; Homo sapiens) of 5140 nM and an IC50 (A375 cells (parental) [9]; [21]) of 5550 nM.
For `CC(C)(C)c1nc(-c2cccc(NS(=O)(=O)c3c(F)cccc3F)c2F)c(-c2ccnc(N)n2)s1` [Dabrafenib], the “effect on healthy cells, cell viability (in words)” value [10] was “did not have any effect”, the “effect on healthy cells, cell viability (in words)” value [11] was “did not have any effect” and the “Half-maximal inhibitory concentration value (IC50), Mean” value [7] was “n.e”. The “Half-maximal inhibitory concentration value (IC50), Mean” value [8] was “n.e” and the IC50 (A375 cells (parental) [9]; [21]) was 1.9 nM.
`CCc1cnn2c(NCc3ccc[n+]([O-])c3)cc(N3CCCC[C@H]3CCO)nc12` [Dinaciclib] showed an IC50 (501Mel cells (parental) [1]; Homo sapiens, 72 h) of 12 nM, an IC50 ([2]; Homo sapiens, 72 h) of 11 nM and an IC50 ([3]; Homo sapiens, 72 h) of 13.6 nM. It also gave an IC50 (IGR37 cells (parental) [4]; Homo sapiens, IGR-37, 72 h) of 8.2 nM, an IC50 ([5]; Homo sapiens, 72 h) of 10.2 nM and an IC50 ([6]; Homo sapiens, 72 h) of 11 nM.
Compound `CCS(=O)(=O)Nc1ccc2c(c1)/C(=C(/Nc1ccc(CN3CCCCC3)cc1)c1ccccc1)C(=O)N2` [Hesperadin, reference compound] has an IC50 ([3]; Homo sapiens, 72 h) of 1040 nM, an IC50 (IGR37 cells (parental) [4]; Homo sapiens, IGR-37, 72 h) of 339 nM and an IC50 ([5]; Homo sapiens, 72 h) of 770 nM. For the same compound, the “cell viability (kinase inhibitor library screening)” value ([12]; 1μΜ) was 52.6%, the “cell viability (kinase inhibitor library screening)” value ([12]; 10μΜ) was 12.7% and the “cell viability (kinase inhibitor library screening)” value ([13]; 1μΜ) was 70.7%. The “cell viability (kinase inhibitor library screening)” value ([13]; 10μΜ) was 3.6%, the “cell viability (kinase inhibitor library screening)” value (IGR37 cells (parental) [14]; 1μΜ) was 56.8% and the “cell viability (kinase inhibitor library screening)” value (IGR37 cells (parental) [14]; 10μΜ) was 48.6%. The “cell viability (kinase inhibitor library screening)” value ([15]; 1μΜ) was 81.7%, the “cell viability (kinase inhibitor library screening)” value ([15]; 10μΜ) was 46.9% and the “cell viability (kinase inhibitor library screening)” value ([16]; 1μΜ) was 35.1%. The “cell viability (kinase inhibitor library screening)” value ([16]; 10μΜ) was 2.0%, the “cell viability (kinase inhibitor library screening)” value (A375 cells (parental) [17]; 10μΜ) was 1.9% and the “cell viability (kinase inhibitor library screening)” value (A375 cells (parental) [17]; 1μΜ) was 7.5%. For the same compound, the “cell viability (kinase inhibitor library screening)” value ([18]; 1μΜ) was 13.0%, the “cell viability (kinase inhibitor library screening)” value ([18]; 10μΜ) was 9.9% and the “cell viability (kinase inhibitor library screening)” value ([19]; 1μΜ) was 13.3%. The “cell viability (kinase inhibitor library screening)” value ([19]; 10μΜ) was 3.7%, the “cell viability (kinase inhibitor library screening)” value (501Mel cells (parental) [20]; 1μΜ) was 45.1% and the “cell viability (kinase inhibitor library screening)” value (501Mel cells (parental) [20]; 10μΜ) was 33.5%.
`NC1(c2ccc(-c3nc4ccn5c(=O)[nH]nc5c4cc3-c3ccccc3)cc2)CCC1` [MK-2206] was tested, and the IC50 (501Mel cells (parental) [1]; Homo sapiens, 72 h) was 4550 nM, the IC50 ([2]; Homo sapiens, 72 h) was 4360 nM and the IC50 ([3]; Homo sapiens, 72 h) was 4730 nM. The IC50 (IGR37 cells (parental) [4]; Homo sapiens, IGR-37, 72 h) was 4750 nM, the IC50 ([5]; Homo sapiens, 72 h) was 5080 nM and the IC50 ([6]; Homo sapiens, 72 h) was 2220 nM. It also gave an IC50 ([7]; Homo sapiens) of 6430 nM, an IC50 ([8]; Homo sapiens) of 3380 nM and an IC50 (A375 cells (parental) [9]; [21]) of 7800 nM.
